Reference: patent publication US9937227B2, “Humanin, analogs and cancer treatment methods and uses thereof” (LOS ANGELES BIOMEDICAL RESEARCH INSTITUTE AT HARBOR-UCLA …, priority 2014, dated 2018)
Where “and” joins values, the source holds several entries; their conditions need not be identical. Equal entries are not always repeated. Where two headings read alike, the source gives them in different places.

Legend:
[1] = test system: testosterone; settings: with or without EDS pre-treatment
[2] = test system: germ cells; settings: HNG 5 mg/kg/BW IP or CP 200 mg/kg/BW IP, 24 hours
Protocol: To examine the protective effects of HNG on germ cells, adult mice were treated with vehicle (control); HNG (5 mg/kg/BW, intraperitoneal injection IP); CP (200 mg/kg/BW, IP); and CP+HNG for 24 hours.

[3] = test system: sperm output; test: Cauda epididymal sperm count after multiple doses of CP; assay type: in vivo, mouse; settings: 28 days; HNG 10 mg/kg BW daily SC; CP 150 mg/kg BW IP, 6 doses at 5-day intervals
Protocol: The objective of this study was to investigate whether HNG has protective effect on sperm output after multiple doses of CP in mice. Thirty adult male mice (C57BL/6J) were randomized into 4 groups: 1) 5 as control; 2) 5 received daily subcutaneously injection of HNG (10 mg/kg BW); 3) 10 were given 6 doses of CP (150 mg/kg BW) intraperitoneally at 5-day intervals; 4) 10 received both HNG and CP. All mice were killed at 28 days. Plasma HNG and IGF-1 levels were measured by ELISAs. The cauda epididymal sperm count was performed using a hemocytometer.

[4] = test system: male germ cells; settings: 24 hours
Protocol: Young adult mice (12-13 weeks) were randomly divided into 4 groups with 4 or 5 mice per group and received an IP injection: control (Con) (saline), HN (40 mg/Kg BW), CP (200 mg/Kg BW), and the combination of CP+HN. These experiments were repeated four times. In the CP+HN group, mice received an injection of HN followed by an injection of CP about 15 minutes later. Twenty-four hours after injections animals were sacrificed using 5% pentobarbital (200 mg/kg BW) IP injection. Blood was collected and one testis was removed, weighed and frozen in liquid nitrogen. The mouse was next perfused with saline and then subsequently perfuse-fixed with Bouin's solution as previously described and apoptosis was assessed by TUNEL assay (Lue, et al., 2009).
For detection of apoptosis in testicular sections, the paraffin embedded testis tissue was cut into 5 micron sections and stained with the TdT-mediated dUTP nick-end labeling assay (TUNEL Apoptosis Detection Kit, Millipore, Billerica, Mass.) to detect apoptosis of germ cells in the testis (Lue, et al., 2009). Testicular sections assayed by TUNEL were examined under a light microscope and the apoptotic germ cells were blindly and manually counted. The seminiferous tubules in the testis section under the microscope were grouped as stages IX-IV (early-late stages of spermatogenesis) and V-VIII (middle stages of spermatogenesis). Germ cell apoptosis was quantified as the number of seminiferous tubules containing apoptotic spermatogonia, spermatoctyes, round spermatids and spermatozoa per 100 seminiferous tubules (Drumond, et al., 2011).

[5] = test system: 4T1 mammary cancer; test: 4T1 mouse mammary cancer model, tumor size and weight; settings: in vivo
Protocol: A mouse mammary cancer model was used which utilizes 4T1 cells transfected with the luciferase gene. Growth and size of 4T1 mammary tumors were detected by bioluminescence imaging (IVIS Luminia II, Perkin Elmer, Waltham, Mass.). Mice (n=5 to 7 per group) were inoculated with 1×10^6 4T1 cells into the right third mammary gland, and 7 days later they were left untreated or treated with HNG (5 mg/kg/day IP), CP (100 mg/Kg single IP) or HNG+CP for 14 days. Bioluminescence imaging was conducted at days 7 and 12. Animals were sacrificed and tumors were removed on day 14 after the start of treatment. Mammary tumors were smaller in CP and CP+HNG groups compared to the untreated and HNG-treated animals (Data images not shown).

[6] = test system: male germ cells; assay type: in vivo; settings: middle stages (VII-VIII); same doses; 24 hours; monohydrate
Protocol: For the HN analog experiments, male mice were divided into seven groups (n=4-5 per group) and received one of the following treatments and sacrificed after 24 hours: 1) vehicle (control); 2) a single intra-peritoneal (IP) injection of HN peptide [HN, 40 mg/Kg body weight (BW)]; 3) a single IP injection of CP (CP, 200 mg/Kg BW); 4) IP injection of CP and HN (CP+HN); 5) a single IP injection of each HN analog (HNG 5 mg/Kg BW, HNG-F6A 5 mg/Kg BW, HN-S7A 40 mg/Kg BW, HN-C8P 40 mg/Kg BW, or HN-L12A 40 mg/Kg BW); 6) IP injection of CP and each HN analog (CP+HNG, HNG-F6A, HN-S7A, HN-C8P, or HN-L12A); and 7) IP injection of CP+HN+HN analog (HN-S7A, HN-C8P, or HN-L12A; to assess whether the analogs has enhancing or inhibitory effect on HN).
To facilitate testicular fixation by using a whole-body perfusion technique, all animals were injected with heparin (130 IU/100 g BW, IP) 15 min before a lethal injection of sodium pentobarbital (200 mg/kg BW, IP) (Lue Y H, et al., 1999). One testis was removed and weighed after perfusion with saline. Portions of testicular parenchyma were snap frozen in liquid nitrogen, and stored at −80 C for Western blotting. The other testis was fixed by vascular perfusion with Bouin's solution, and processed with routine paraffin embedding for in situ detection of apoptosis.
Detection of apoptotic cells was performed in Bouin's'-fixed, paraffin-embedded testicular sections by the terminal deoxynucleotidyl transferase (TdT)-mediated deoxy-UTP nick end labeling (TUNEL) technique (Sinha Hikim A P, et al., 1997) using an ApopTag-peroxidase kit (Chemicon International, Inc., Temecula, Calif.). Enumeration of the Sertoli cell nuclei with distinct nucleoli and apoptotic germ cell population was quantified at stages I-IV (early stages), stages VII-VIII (middle stages) and stages XI-XII (late stages) of the seminiferous epithelial cycle using an Olympus BH-2 microscope (New Hyde Park, N.Y.). Stages were identified according to the criteria proposed by Russell et al for paraffin sections (Russell L, 1977). The rate of germ cell apoptosis (apoptotic index, AI) was expressed as the number of apoptotic germ cells per Sertoli cells (Sinha Hikim A P, et al., 1997).

SMILES: O=P1(N(CCCl)CCCl)NCCCO1 (stereo not drawn) [CP, cyclophosphamide monohydrate]
- intratesticular testosterone levels [1]: no significant effects
- serum testosterone levels [1]: no significant effects
- germ cell apoptosis vs control [2]: significantly increased
- epididymal sperm counts [3]: 0.5±0.1 ×10^6/mg
- germ cell apoptosis compared to control ([4]; early-late stages of spermatogenesis, CP 200 mg/Kg IP): significantly increased germ cell apoptosis
- germ cell apoptosis compared to control ([4]; middle stages (V-VIII), CP 200 mg/Kg IP): significant increase in apoptosis
- germ cell apoptosis compared to control ([4]; testicular cross sections, HN 40 mg/Kg or CP 200 mg/Kg single IP): significantly increased germ cell apoptosis
- mammary tumor size and weight [5]: smaller
- apoptotic index (AI, apoptotic germ cells per Sertoli cell) [6]: 0.25±0.03 and 0.33±0.03
